Values joined by “and” are separate entries in the source; they are usually repeats but may differ in a detail not shown here. Equal entries are not always repeated.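 Assay format: 96-well plates, 48-hour exposure. GI50 = concentration required for 50% inhibition of growth. At the TGI there is no net growth.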

Among the test systems are SNB-19 CNS; NCI-H522 lung; M14 melanoma; HCT-116 colon; U251 CNS; RPMI-8226 leukemia; SF-539 CNS; HT29 colon; LOX IMVI melanoma; BT-549 breast.
Assay in all cases: growth of human tumour cells (NCI), 48 h

On to `COC(=O)c1cc(-c2ccc3ccccc3c2)[nH]c(=O)c1C#N`, for which the TGI in the test on SNB-19 CNS, in the test on NCI-H522 lung, in the test with M14 melanoma, in the test with HCT-116 colon, in the test on U251 CNS and in the test on RPMI-8226 leukemia was above 100 µM each time. Also, the TGI in the test on SF-539 CNS, with HT29 colon, with LOX IMVI melanoma and in the test with BT-549 breast was above 100 µM throughout.
On to `Cc1ccc2c(c1)[n+](=O)c(C(=O)c1cccs1)c(C(F)(F)F)n2[O-]`, for which the GI50 with SNB-19 CNS is 2.24 µM and 3.91 µM; in the test on NCI-H522 lung, 1.37 µM and 0.23 µM; in the test with M14 melanoma it was 2.99 µM and 4.32 µM; in the test with HCT-116 colon it was 2.47 µM and 0.731 µM; in the test with U251 CNS, 1.6 µM and 0.906 µM; in the test on RPMI-8226 leukemia, 1.54 µM and 0.356 µM. Moreover, the GI50 was 0.997 µM with SF-539 CNS; 2.76 µM in the test on HT29 colon; 0.612 µM and 0.561 µM in the test with LOX IMVI melanoma; 0.603 µM in the test on BT-549 breast. For the same compound, the TGI was 11.2 µM and 17.8 µM in the test with SNB-19 CNS; 50 µM and 26.2 µM in the test on M14 melanoma; 50 µM and 15.9 µM with HCT-116 colon; 10.1 µM and 14.3 µM in the test on U251 CNS; 2.36 µM in the test on SF-539 CNS; 50 µM with HT29 colon. Moreover, the TGI in the test with LOX IMVI melanoma is 1.76 µM and 1.82 µM; in the test on BT-549 breast, 1.97 µM.
In the case of `C[C@@H](Nc1nc(N[C@H](C)C(F)(F)F)nc(-c2cccc(Cl)n2)n1)C(F)(F)F`, the GI50 in the test on SNB-19 CNS was 23.3 µM; in the test with NCI-H522 lung, 30 µM; in the test with M14 melanoma, above 100 µM; with HCT-116 colon, 59.4 µM; in the test on U251 CNS, 20.8 µM; with RPMI-8226 leukemia it was above 100 µM. Besides, the GI50 in the test on SF-539 CNS was 26.5 µM; in the test with HT29 colon, above 100 µM; in the test with LOX IMVI melanoma, 79.8 µM; with BT-549 breast, 37.9 µM. In addition, the TGI with SNB-19 CNS is 63.5 µM; in the test with NCI-H522 lung, above 100 µM; in the test with M14 melanoma it was above 100 µM; in the test on HCT-116 colon, above 100 µM; with U251 CNS it was 54 µM; in the test on RPMI-8226 leukemia, above 100 µM. The TGI in the test on SF-539 CNS is 68.6 µM; in the test on HT29 colon, above 100 µM; with LOX IMVI melanoma, above 100 µM; in the test on BT-549 breast, above 100 µM.
With `Nc1n[n+]([O-])c2cc([N+](=O)[O-])ccc2[n+]1[O-]`, the TGI with SNB-19 CNS is 31.1 µM; in the test on NCI-H522 lung it was 4.25 µM; in the test with M14 melanoma, 20.4 µM; with HCT-116 colon, 16.5 µM; in the test on U251 CNS it was 18.5 µM; with RPMI-8226 leukemia, above 100 µM. Also, the TGI with SF-539 CNS is 16 µM; in the test on HT29 colon, 10.1 µM; in the test on LOX IMVI melanoma it was above 100 µM; in the test on BT-549 breast, 32 µM.
As for `CCCCCC/C=C/C#CCCCCCCCC(=O)O`, the TGI with SNB-19 CNS, in the test with NCI-H522 lung, in the test with M14 melanoma, with HCT-116 colon, with U251 CNS and in the test with RPMI-8226 leukemia was above 100 µM each time. Further, the TGI in the test with SF-539 CNS, in the test with HT29 colon, in the test with LOX IMVI melanoma and in the test with BT-549 breast was above 100 µM in each case.
Regarding `CNC(=O)c1cc(Oc2ccc3nc(NC(=O)Nc4ccc(CN5CCOCC5)c(C(F)(F)F)c4)sc3c2)ccn1`, the GI50 in the test on SNB-19 CNS was 3.82 µM; with NCI-H522 lung, 1.97 µM; in the test with M14 melanoma it was 2.48 µM; in the test with HCT-116 colon, 1.78 µM; in the test with U251 CNS, 1.77 µM; in the test on RPMI-8226 leukemia, 1.72 µM. Moreover, the GI50 was 1.58 µM in the test on SF-539 CNS, 2.14 µM with HT29 colon, 1.82 µM in the test with LOX IMVI melanoma and 3.02 µM in the test with BT-549 breast. Further, the TGI in the test on SNB-19 CNS is 16.4 µM; in the test with NCI-H522 lung, 8.36 µM; in the test on M14 melanoma, 6.53 µM; with HCT-116 colon, 3.62 µM; in the test with U251 CNS it was 3.54 µM; in the test on RPMI-8226 leukemia it was 4.49 µM. Besides, the TGI in the test on SF-539 CNS stood at 3.37 µM; with HT29 colon, 5.5 µM; in the test with LOX IMVI melanoma, 4.34 µM; in the test on BT-549 breast it was 9.18 µM.
Regarding `CC(=O)N[C@H](C)[C@@H](O)[C@@H](C)[C@@H]1OC(=O)/C=C/C=C(C)\C=C\[C@]2(C)C[C@@H](NS(C)(=O)=O)C=C[C@@H]2/C=C(C)/C=C/[C@H]1C`, the GI50 with SNB-19 CNS is 0.039 µM and 0.0228 µM; with NCI-H522 lung it was 0.0251 µM and 0.0451 µM; in the test on M14 melanoma it was 0.00309 µM; with HCT-116 colon it was 0.00172 µM and 0.00435 µM; in the test on U251 CNS, 0.00368 µM and 0.00435 µM; in the test on RPMI-8226 leukemia, 0.00766 µM and 0.0153 µM. Also, the GI50 in the test with SF-539 CNS was 0.00357 µM and 0.00623 µM; with HT29 colon, 0.00459 µM and 0.00435 µM; in the test with LOX IMVI melanoma, 0.00271 µM and 0.00743 µM; with BT-549 breast it was 0.00898 µM and 0.0242 µM. For the same compound, the TGI in the test on SNB-19 CNS, in the test on NCI-H522 lung, in the test on HCT-116 colon, in the test on U251 CNS, in the test with RPMI-8226 leukemia and with SF-539 CNS was above 43.5 µM in each case. The TGI with HT29 colon was above 43.5 µM; in the test with LOX IMVI melanoma, 0.00873 µM and 0.0148 µM; in the test on BT-549 breast, above 43.5 µM.

Source of the values: PubChem BioAssay (NCI).
